# Assay results taken from patent US6583132B1, “Oxidant scavengers” (Duke University, priority 1993, dated 2003).
# How the values were obtained:
# [1] = tested on: descending thoracic aorta rings; assay: NO-induced vascular relaxations of aortic rings; parameters: species or system New Zealand white rabbits; settings: 100 μM; NO 75-300 nM
# Protocol: Measurement of NO-induced vascular relaxations: New Zealand white rabbits weighing 3-4 kg were anesthetized with pentobarbital (30 mg/kg). The descending thoracic aorta was isolated, removed, cleaned and placed in Krebs buffer (pH 7.5). Vessels were cut into 5 mm rings and hung on stirrups connected to force transducers. Rings were suspended in 20 ml jacketed baths which were kept at 37° C. and bubbled with 95% O2 and 5% CO2. Rings were equilibrated with 2 g resting tension for 1 h before use and contracted with phenylephrine. Saturated NO solution was prepared by bubbling compressed NO gas through a NaOH trap and then into anaerobic deionized water. Aliquots of the nitric oxide solutions (final concentration: 75-300 nM) were added to the rings (in the presence or absence of 100 μM MnTBAP) and relaxant responses were recorded.
# [2] = Peroxynitrite-induced oxidation of dihydrorhodamine 123; format: biochemical; settings: peroxynitrite 5 μM; 10 μM dihydrorhodamine 123; 10 min, 22° C.; read-out: concentration giving 50% inhibition of oxidation of dihydrorhodamine 123 to rhodamine 123
# Protocol: Measurement of peroxynitrite-induced oxidation of dihydrorhodamine 123: The peroxynitrite-dependent oxidation of dihydrorhodamine 123 to rhodamine 123, was measured based on the principles of the method described by Kooy et al, Free Radical Biol. Med. 16:149 (1994). Briefly, peroxynitrite at 5 μM was added into phosphate-buffered saline containing 10 μM dihydrorhodamine 123, in the absence of presence of MnTBAP (3-100 μM). After a 10 min incubation at 22° C., the fluorescence of rhodamine 123 was measured using a Perkin-Elmer fluorimeter (Model LS50B: Perkin-Elmer, Norwalk, Conn.) at an excitation wavelength of 500 mn, emission wavelength of 536 nm (slit widths 2.5 and 3.0 nm, respectively).
# [3] = tested on: calf pulmonary artery endothelial cell cultures (CPA-47); assay: Paraquat-induced injury of CPA-47 cells, LDH release; format: cell-based; settings: varying concentrations; Paraquat 2 mM, 24 hours
# Protocol: Calf pulmonary artery endothelial cell cultures (CPA-47) were grown to confluence in Ham's F-12K medium with 10% fetal bovine serum at pH 7.4 and 37° C. Cells were then trypsinized and seeded at equal densities in 24 well plates and grown to 90% confluence. Cells were washed and pre-incubated for 1 hour with varying concentrations of ZnTBAP in MEM or MEM only. Paraquat (2 mM) was added and allowed to incubate for 24 hours. Cell injury was quantitated by measuring the release of cellular lactate dehydrogenase (LDH) into the medium.
# aconitase = assay: Aconitase activity in cortical cell lysates; format: cell-based, rat; settings: 200 μM MnTBAP
# Protocol: Tissue culture: Mixed neuronal and glial cultures were prepared from embryonic day-18 rat cerebral cortices (Sprague-Dawley, Zivic Miller). Briefly, the cerebral cortices were dissected and enzymatically dissociated by incubation in Ca^++-, Mg^++-free Hank's balanced salt solution (HBSS) supplemented with 10 mM HEPES and 0.25% trypsin for 20 min. at 37° C. The tissue was rinsed and dispersed into single cell suspension by gentle passage through a fire polished Pasteur pipette. The cell suspension was centrifuged and resuspended in Minimum Essential Media (MEM), containing Earle's salts supplemented with 3 g/L glucose, 5% horse serum and 5% fetal bovine serum (growth media). The cells were plated in poly-D-lysine-coated multi-well plates: 12-well plates for aconitase measurement, and 24 well plates for toxicity experiments. Cells were maintained at 37° C. in a humidified incubator with 5% CO2/95% air in growth media. Media was not replaced so as to reduce glial overgrowth and neuronal loss. Mature cells (14-17 days in vitro) were used for all experiments.
# Cell treatment: The growth media was replaced with MEM supplemented with 25 mM glucose (MEM-g). For both neurotoxicity studies and aconitase measurement, cells were incubated in the designated treatment for the indicated length of time at 37° C. Unless otherwise specified, antagonists or SOD-mimetics were added 15 min. prior to agonists. For measurement of neurotoxicity, cells were incubated with treatments for 18 hr at 37° C. in MEM-g. To access the ability of antagonists to inhibit acute NMDA toxicity or rescue cells from an ongoing NMDA insult, an alternate paradigm of NMDA treatment was used in addition to the one describe above. In this paradigm, growth media was replaced with HBSS^+ (Ca^++-, Mg^++-free Hank's Balanced Salt Solution supplemented with 2 mM CaCl2, 1 mM NaHCO3, 10 mM HEPES and 5 μM glycine), cells were treated with vehicle or 100 μM NMDA for 15 min. after which HBSS^+ was replaced with MEM-g and cells were returned to the incubator for 18 additional hrs. Antagonsists or SOD-mimetics were added to the cells 15 min. before NMDA exposure or 15, 30 or 60 min. following final media replacement. For determination of Ca^++-dependence, cells were incubated in HBSS^+ with no added Ca^++. When kainate (KA) was used as an agonist, 100 μM D-APV was routinely included to block secondary NMDA receptor activation. Catalase (100 U/ml) was always included when xanthine plus xanthine oxidase (X+XO) was used as a treatment to rule out the contribution of hydrogen peroxide.
# Aconitase measurement: For the measurement of aconitase, following treatment with agents, media was removed and cells lysed in ice-cold 50 mM, Tris/HCl, pH 7.4 containing 0.6 mM MnCl2, 1 mM L-cysteine, 1 mM citrate and 0.5% Triton-X 100. The aconitase activity of cell lysates was measured spectrophotometrically by monitoring the formation of cis-aconitate from isocitrate at 240 nm in 50 mM Tris/HCl, pH 7.4, containing 0.6 mM MnCl2 and 20 mM isocitrate at 25° C. (Kreb and Holzach, Biochem. J. 52:527 (1952); Gardner and Fridovich, J. Biol. Chem. 267:8757 (1992)). […] Aconitase activity in cortical cell lysates was inhibited by 0.1 mM potassium ferricyanide or by boiling of sample.
# [4] = tested on: Calf pulmonary endothelial cell (CPA-47) line; assay: Glucose oxidase hydrogen peroxide injury of CPA-47, Cr^51 release; format: cell-based; settings: glucose oxidase 100 Mu/ml, 4 hours; 1 hour pretreatment
# Protocol: (§1) Calf pulmonary endothelial cell (CPA-47) line was grown to near confluence in 12-well plates with F-12K medium containing 10% fetal calf serum. CPA-47 cells were loaded with Cr^51 as previously described by Simon et al J. Clin. Invest. 78:1375 (1986) in high glucose minimum essential medium (DMEM). Cells were pretreated with MnTBAP (100 μM) for 1 hour and then exposed to various concentrations of hydrogen peroxide generator, glucose oxidase, for 4 hours. Cell injury was then quantitated as the specific Cr^51 release from CPA-47 cells which has been adjusted for spontaneous Cr51 release.
# as §1, with “(J.” for “J.”, “(1986))” for “(1986)”, “various concentrations of either: (A) MnTBAP; (B) MnTMPyP; (C) ZnTBAP; or (D) CuZnSOD” for “MnTBAP (100 μM)”, “the” for “various concentrations of”, “oxidase (100 Mu/ml),” for “oxidase,”, “Cr^51” for “Cr51”
substance,measurement,setting,value
Mn(III) tetrakis (4-benzoic acid)porphyrin [MnTBAP],relaxations in vascular rings in response to authentic NO,[1],did not inhibit
same,IC50,[2],30 µM
same,paraquat-induced LDH release / injury,[3],decreases paraquat-induced LDH release in a dose-dependent manner
same,"PQ^++-, NMDA- and KA-mediated decreases of aconitase activity",aconitase,markedly inhibited
same,hydrogen peroxide-induced endothelial cell injury,[4],reduction
